Here are results for 5 molecules from US9453038B2, “Glucokinase activator compounds, compositions containing such compounds, and methods of treatment” (Merck Sharp & Dohme Corp., priority 2012, dated 2016).

pEC50: −log10 of the molar value.

The target of this test is Recombinant human liver glucokinase (FLAG fusion protein) (Homo sapiens (Human), UniProt P35557). Kind of test: glucokinase (GK) activation assay, Thio-NADH formation coupled to G6PDH, absorbance at 405 nm. In kind it is biochemical. The following applies: 2.5 mM Glu; for pEC50: 30° C.; for Emax: OD value of DMSO control regarded as 100%, read-out: Emax. The text has this:
The glucokinase activity can, for instance, be determined without directly measuring glucose-6-phosphate by measuring the amount of Thio-NADH generated during the production of phosphogluconolactone from glucose-6-phosphate by a reporter enzyme glucose-6-phosphate dehydrogenase.
To test the exemplified compounds, the following assay was employed. Recombinant human liver glucokinase was expressed as a FLAG fusion protein in E. coli, and purified on ANTIFLAG M2 AFFINITY GEL (Sigma). The assay was carried out at 30° C. in a 96-well plate. In the plate was distributed 69 μl each of assay buffer (25 mM Hepes Buffer: pH=7.2, 2 mM MgCl2, 1 mM ATP, 0.5 mM TNAD, 1 mM dithiothreitol), to which was added 1 μl of a DMSO solution of the compound or DMSO as control. Then, 20 μl of pre-ice-cooled enzyme mixture (FLAG-GK, 20 U/ml G6PDH) was distributed thereto, to which was added 10 μl of 25 mM glucose as substrate to initiate the reaction (final glucose concentration=2.5 mM). After starting the reaction, the absorbance at 405 nm was measured every 30 seconds for 10 minutes to evaluate the compound based on the initial increase for 5 minutes. FLAG-GK was added so that the increase of absorbance after 5 minutes fell between 0.05 to 0.1 in the presence of 1% DMSO.
The OD values of the respective compounds were measured in the respective concentrations, wherein the OD value of DMSO as control is regarded as 100%. From the OD values at the respective concentrations, Emax (%, 2.5 mM Glu) and EC50 (nM, 2.5 mM Glu) were calculated and used as indicators of the GK activation capability of the compounds. According to the above assay, the GK activation capability of the exemplified compounds of the present invention was determined. […] Where different enantiomers of the same compound were tested, two numbers are provided. Where 3 numbers are provided, for example, Ex. #30, data for the racemic form is also shown.

Sequence of Recombinant human liver glucokinase (FLAG fusion protein) (P35557 other isoform, or with tags, fused parts or gaps): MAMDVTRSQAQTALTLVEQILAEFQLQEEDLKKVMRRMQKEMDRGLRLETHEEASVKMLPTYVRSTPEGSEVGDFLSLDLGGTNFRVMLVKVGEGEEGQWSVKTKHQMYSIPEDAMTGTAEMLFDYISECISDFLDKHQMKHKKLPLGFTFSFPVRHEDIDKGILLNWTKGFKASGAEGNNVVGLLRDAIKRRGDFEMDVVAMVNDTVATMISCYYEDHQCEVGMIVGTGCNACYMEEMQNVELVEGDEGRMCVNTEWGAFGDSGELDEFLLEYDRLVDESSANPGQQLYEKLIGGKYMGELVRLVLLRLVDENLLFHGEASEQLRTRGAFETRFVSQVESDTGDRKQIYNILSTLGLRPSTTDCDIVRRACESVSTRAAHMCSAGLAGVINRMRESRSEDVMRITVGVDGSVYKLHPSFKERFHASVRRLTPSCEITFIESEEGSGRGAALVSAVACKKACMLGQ

With `CN1C(=O)CCC1c1cc2[nH]c(-c3nc(CC(=O)O)c(Cl)s3)cc2cc1Oc1ccc(S(C)(=O)=O)cc1` (stereo not shown) [Example 33, 2-(5-chloro-2-(6-(1-methyl-5-oxopyrrolidin-2-yl)-5-(4-(methylsulfonyl)phenoxy)-1H-indol-2-yl)thiazol-4-yl)acetic acid], the pEC50 is 7.32 and the maximal response (Emax) worked out at 586%.

With `CN1C(=O)CCC1c1cc2[nH]c(-c3nc(CC(=O)O)cs3)cc2cc1Oc1ccc(S(C)(=O)=O)cc1` (stereo not shown) [Example 34, 2-(2-(6-(1-methyl-5-oxopyrrolidin-2-yl)-5-(4-(methylsulfonyl)phenoxy)-1H-indol-2-yl)thiazol-4-yl)acetic acid], the negative-log EC50 (pEC50) was 6.93 and the Emax is 606%.

With `COC(=O)CCc1cnc(-c2cc3cc(Oc4ccc(S(C)(=O)=O)cc4)c(C4CCC(=O)N4C)cc3[nH]2)s1` (stereo not shown) [Example 35, methyl 3-(2-(6-(1-methyl-5-oxopyrrolidin-2-yl)-5-(4-(methylsulfonyl)phenoxy)-1H-indol-2-yl)thiazol-5-yl)propanoate], the negative-log EC50 (pEC50) was 8.05 and the Emax turned out to be 656%.

Take `CN1C(=O)CCC1c1cc2[nH]c(-c3ncc(CCC(=O)O)s3)cc2cc1Oc1ccc(S(C)(=O)=O)cc1` (stereo not shown) [Example 36, 3-(2-(6-(1-methyl-5-oxopyrrolidin-2-yl)-5-(4-(methylsulfonyl)phenoxy)-1H-indol-2-yl)thiazol-5-yl)propanoic acid]: the pEC50 is 7.18 and the Emax was 619%.

Turning to `CCOP(=O)(Cc1cnc(-c2cc3cc(Oc4ccc(S(C)(=O)=O)nc4)c(C4CCC(=O)N4C)cc3[nH]2)s1)OCC` (stereo not shown) [Example 37, diethyl((2-(6-(1-methyl-5-oxopyrrolidin-2-yl)-5-((6-(methylsulfonyl)pyridin-3-yl)oxy)-1H-indol-2-yl)thiazol-5-yl)methyl)phosphonate], the pEC50 is 7.63 and the Emax was 696%.

What is called pEC50 is the EC50 on a negative log10 scale, so that one unit is a factor of ten. The Emax is the size of the effect at its maximum, as opposed to the concentration needed.
